Measurements published in patent publication US8455004B2, “Primary composition comprising a lipophilic bioactive compound” (Nestec S.A., priority 2000, dated 2013).

Test: Aqueous-phase analysis of the stability of lycopene (decomposition by light and oxygen)
Type: physicochemical
Method: It is known that light and oxygen cause lycopene to decompose. An aqueous-phase analysis of the stability of lycopene alone and of lycopene in combination with the whey protein according to the invention was carried out. After one day in the aqueous phase for lycopene alone, only 40% of the lycopene remains, whereas, with the whey, virtually 90% of it, remains.

CC(C)=CCC/C(C)=C/C=C/C(C)=C/C=C/C(C)=C/C=C/C=C(C)/C=C/C=C(C)/C=C/C=C(\C)CCC=C(C)C [lycopene alone, lycopene]
Lycopene remaining after one day (one day): 40%
Lycopene remaining after two days (two days): virtually completely decomposed
